Data taken from patent US20110052700A1, “GASTRIC RETENTIVE PHARMACEUTICAL COMPOSITIONS FOR IMMEDIATE AND EXTENDED RELEASE OF LEVOSULPIRIDE” (DEPOMED, INC., priority 2009, published 2011).

Key:
[1] = Stress stability study, open dishes at 50° C or 80° C, 75% RH, 3 days, HPLC impurity analysis; assay type: physicochemical
Method: In the present work, levosulpiride was subjected to stress and compatibility studies using methods published in the European Pharmacopoeia, Supplement 2001, 1572 Assay. Both levosulpiride powder and granules comprising 95 wt % levosulpiride and 5 wt % povidone (PVP) prepared as described in Example 1 were incubated in open dishes in a stability chamber/oven at 50° C. or 80° C., 75% relative humidity (RH) for 3 days. The substances were then analyzed by HPLC (high performance liquid chromatography). The mobile phase (MP) was composed of 10% acetonitrile (ACN), 10% methanol (MeOH) and an 80% solution containing 6.8 g/l of potassium dihydrogen phosphate and 1 g/l of sodium octanesulphonate, pH 3.3. The column was a 0.25 m×4.6 mm, 5 μm Zorbax RX C8 (Agilent, Inc.), flow was set at 1.5 ml/min with a wavelength of 240 nm.

[2] = Excipient compatibility study, HDPE bottles, 40° C, 75% RH, HPLC impurity analysis; assay type: physicochemical
Method: Studies were done to determine compatibility of the levosulpiride with the various excipients used in the formulations described herein. Samples, as described in Table 12 below, were packaged into 60 cc high-density polyethylene (HDPE) bottles with an induction seal, then stored at 40° C., 75% relative humidity (RH). Samples may be taken at various time points to analyze for the presence of impurities.
Various samples comprised of the levosulpiride with excipients as described in Table 11 below were packaged in 60 cc HDPE bottles with induction seals, then stored at 40° C., 75% RH. Samples were analyzed at 1 and 2 months using HPLC according to the method described in Example 6.

[3] = 1 vs. 2 month (one value given)

Impurities under the stressed condition ([1]; 50° C. or 80° C., 75% RH, 3 days): did not increase
Impurity B RPA (%) ([1]; 50° C./75% RH, Time = 3 days): <0.05%
Levosulpiride peak RPA (%) ([1]; 50° C./75% RH, Time = 3 days): 100%
Unknown Impurity 1 RPA (%) ([1]; 50° C./75% RH, Time = 3 days): <0.05%
Unknown Impurity 2 RPA (%) ([1]; 50° C./75% RH, Time = 3 days): 0.20%
Impurity B RPA (%) ([1]; 80° C./75% RH, Time = 3 days): <0.05%
Levosulpiride peak RPA (%) ([1]; 80° C./75% RH, Time = 3 days): 100%
Unknown Impurity 1 RPA (%) ([1]; 80° C./75% RH, Time = 3 days): <0.05%
Unknown Impurity 2 RPA (%) ([1]; 80° C./75% RH, Time = 3 days): 0.22%
Impurity B RPA (%) ([1]; Time = 0): <0.05%
Levosulpiride peak RPA (%) ([1]; Time = 0): 100%
Unknown Impurity 1 RPA (%) ([1]; Time = 0): <0.05%
Unknown Impurity 2 RPA (%) ([1]; Time = 0): 0.17%
Unknown Impurity 2 RPA (%) ([2]; 1 month): 0.18%
Impurity B RPA (%) [2, 3]: <0.05%
Levosulpiride peak RPA (%) [2, 3]: 100%
Unknown Impurity 1 RPA (%) [2, 3]: <0.05%
Unknown Impurity 2 RPA (%) ([2]; 2 month): 0.19%
Structure (SMILES): CCN1CCC[C@H]1CNC(=O)c1cc(S(N)(=O)=O)ccc1OC [Levosulpiride]
